# Active and inactive are the calls of the source. No cut-off for these calls is given here.
# How the values were obtained:
# BMDM [1] = test: Anti-osteoclastogenesis activity in RANKL-induced mouse BMDM cells assessed as reduction in TRAP-positive area at 10 uM measured after 4 days by TRAP staining based analysis; format: functional, cell-based; settings: time 4.0 day
# Mus musculus [2] = species on record: Mus musculus; test: Anti-osteoporosis activity OVX-induced […] C57BL/6J mouse model assessed as attenuation of number of osteoclast by TRAP staining based analysis; format: functional, organism-based
# Mus musculus [3] = test: Anti-osteoporosis activity LPS induced male C57BL/6J mouse model assessed as increase in BMD in femur at 5 mg/kg measured every 2 days for 12 day by Micro-CT 3D scanning method; format: functional, organism-based
# [4] = Drug uptake in male C57BL/6J mouse serum assessed as increase in acacetin level at 50 mg/kg, ip measured after 10 mins; format: ADME, organism-based; settings: in vivo
# BMDM [5] = test: Anti-osteoclastogenesis activity in RANKL-induced mouse BMDM cells assessed as downregulation of Acp mRNA expression at 10 uM measured after 4 days by RT-PCR analysis; format: functional, cell-based; settings: time 4.0 day
# Mus musculus [6] = test: Anti-osteoporosis activity LPS induced male C57BL/6J mouse model assessed as increase in trabecular bone volume fraction in femur at 5 mg/kg measured every 2 days for 12 day by Micro-CT 3D scanning method; format: functional, organism-based
# Mus musculus [7] = test: Anti-osteoporosis activity in OVX-induced […] C57BL/6J mouse model assessed as improvement in BMD in femur at 5 mg/kg measured every three days for 7 weeks by Micro-CT 3D scanning analysis; format: functional, organism-based
# BMDM [8] = test: Anti-osteoclastogenesis activity in RANKL-induced mouse BMDM cells assessed as downregulation of Ctsk-mRNA expression at 10 uM measured after 4 days by RT-PCR analysis; format: functional, cell-based; settings: time 4.0 day
# Mus musculus [9] = test: Anti-osteoporosis activity in OVX-induced […] C57BL/6J mouse model assessed as improvement in trabecular number in femur at 5 mg/kg measured every three days for 7 weeks by Micro-CT 3D scanning analysis; format: functional, organism-based
# Mus musculus [10] = test: Anti-osteoporosis activity LPS induced male C57BL/6J mouse model assessed as increase in trabecular number in femur at 5 mg/kg measured every 2 days for 12 day by Micro-CT 3D scanning method; format: functional, organism-based
# Mus musculus [11] = test: Anti-osteoporosis activity in OVX-induced […] C57BL/6J mouse model assessed as improvement in trabecular bone volume fraction in femur at 5 mg/kg measured every three days for 7 weeks by Micro-CT 3D scanning analysis; format: functional, organism-based
# Mus musculus [12] = test: Anti-osteoporosis activity in OVX-induced […] C57BL/6J mouse model assessed as improvement in trabecular thickness in femur at 5 mg/kg measured every three days for 7 weeks by Micro-CT 3D scanning analysis; format: functional, organism-based
# BMDM [13] = test: Anti-osteoclastogenesis activity in RANKL-induced mouse BMDM cells assessed as downregulation of Fos mRNA expression at 10 uM measured after 4 days by RT-PCR analysis; format: functional, cell-based; settings: time 4.0 day
# Mus musculus [14] = species on record: Mus musculus; test: Anti-osteoporosis activity LPS induced male C57BL/6J mouse model assessed as attenuation of number of osteoclast per unit of trabecular bone area by TRAP staining based analysis; format: functional, organism-based
# Mus musculus [15] = test: Anti-osteoporosis activity LPS induced male C57BL/6J mouse model assessed as increase in trabecular thickness in femur at 5 mg/kg measured every 2 days for 12 day by Micro-CT 3D scanning method; format: functional, organism-based
# Mus musculus [16] = species on record: Mus musculus; test: Anti-osteoporosis activity OVX-induced […] C57BL/6J mouse model assessed as reduction of trabecular bone in femur by H and E staining based analysis; format: functional, organism-based
# [17] = Cytotoxicity against mouse BMDM cells at <20 uM measured after 48 to 96 hrs by CCK-8 method; format: toxicity, cell-based; settings: time 48-96 hrs
# BMDM [18] = test: Anti-osteoclastogenesis activity in RANKL-induced mouse BMDM cells assessed as reduction in number of TRAP-positive cells at 10 uM measured after 4 days by TRAP staining based analysis; format: functional, cell-based; settings: time 4.0 day
# BMDM [19] = test: Anti-osteoclastogenesis activity in RANKL-induced mouse BMDM cells assessed as downregulation of TRAP mRNA expression at 10 uM measured after 4 days by RT-PCR analysis; format: functional, cell-based; settings: time 4.0 day
# Mus musculus [20] = species on record: Mus musculus; test: Anti-osteoporosis activity LPS induced male C57BL/6J mouse model assessed as increase in density of cancellous bone trabeculae in femur by H and E staining based analysis; format: functional, organism-based
# RAW264.7 [21] = test: Antiinflammatory activity in LPS-induced mouse RAW264.7 cells assessed as inhibition of Tnf mRNA expression at 10 uM preincubated for 3 hrs followed by LPS stimulation and measured after 6 hrs by RT-PCR analysis; format: functional, cell-based; settings: time 9.0 hrs
# Mus musculus [22] = test: Anti-osteoporosis activity in OVX-induced […] C57BL/6J mouse model assessed as improvement in BMD in femur at 9.36 mg/kg measured every three days for 7 weeks by Micro-CT 3D scanning analysis; format: functional, organism-based
# [23] = Drug uptake in male C57BL/6J mouse serum assessed as increase in acacetin level at 93.6 mg/kg, ip measured after 10 mins; format: ADME, organism-based; settings: in vivo
# Mus musculus [24] = test: Anti-osteoporosis activity in OVX-induced […] C57BL/6J mouse model assessed as improvement in trabecular number in femur at 9.36 mg/kg measured every three days for 7 weeks by Micro-CT 3D scanning analysis; format: functional, organism-based
# Mus musculus [25] = test: Anti-osteoporosis activity LPS induced male C57BL/6J mouse model assessed as increase in trabecular bone volume fraction in femur at 9.36 mg/kg measured every 2 days for 12 day by Micro-CT 3D scanning method; format: functional, organism-based
# Mus musculus [26] = species on record: Mus musculus; test: Anti-osteoporosis activity LPS induced male C57BL/6J mouse model assessed as reduction of CTX-I level by ELISA method; format: functional, organism-based
# Mus musculus [27] = test: Anti-osteoporosis activity in OVX-induced […] C57BL/6J mouse model assessed as improvement in trabecular thickness in femur at 9.36 mg/kg measured every three days for 7 weeks by Micro-CT 3D scanning analysis; format: functional, organism-based
# Mus musculus [28] = test: Anti-osteoporosis activity LPS induced male C57BL/6J mouse model assessed as increase in trabecular number in femur at 9.36 mg/kg measured every 2 days for 12 day by Micro-CT 3D scanning method; format: functional, organism-based
# RAW264.7 [29] = test: Antiinflammatory activity in LPS-induced mouse RAW264.7 cells assessed as inhibition of Il6 mRNA expression at 10 uM preincubated for 3 hrs followed by LPS stimulation and measured after 6 hrs by RT-PCR analysis; format: functional, cell-based; settings: time 9.0 hrs
# Mus musculus [30] = test: Anti-osteoporosis activity in OVX-induced […] C57BL/6J mouse model assessed as improvement in trabecular bone volume fraction in femur at 9.36 mg/kg measured every three days for 7 weeks by Micro-CT 3D scanning analysis; format: functional, organism-based
# Mus musculus [31] = species on record: Mus musculus; test: Anti-osteoporosis activity OVX-induced […] C57BL/6J mouse model assessed as reduction of CTX-I level by ELISA method; format: functional, organism-based
Compound,Activity (BMDM [1]),Activity (Mus musculus [2]),Activity (BMDM [5]),Activity (BMDM [8]),Activity (BMDM [13]),Activity (Mus musculus [14]),Activity (Mus musculus [16]),Activity [17],Activity (BMDM [18]),Activity (BMDM [19]),Activity (Mus musculus [20]),also measured
COc1ccc(-c2cc(=O)c3c(O)cc(O)cc3o2)cc1 [ACACETIN],Active,Active,Active,Active,Active,Active,Active,Non-Toxic,Active,Active,Active,Activity (Mus musculus [3]): Active; Drug uptake [4]: 489.59 ng/mL; Activity (Mus musculus [6]): Active; Activity (Mus musculus [7]): Active; Activity (Mus musculus [9]): Active; Activity (Mus musculus [10]): Active; Activity (Mus musculus [11]): Active; Activity (Mus musculus [12]): Active; Activity (Mus musculus [15]): Active
COCCOCCOCCOCCOCC(=O)Oc1cc(O)c2c(=O)cc(-c3ccc(OC)cc3)oc2c1,Active,Active,Active,Active,Active,Active,Active,Non-Toxic,Active,Active,Active,Activity (RAW264.7 [21]): Active; Activity (Mus musculus [22]): Active; Drug uptake [23]: 3528.82 ng/mL; Activity (Mus musculus [24]): Active; Activity (Mus musculus [25]): Active; Activity (Mus musculus [26]): Active; Activity (Mus musculus [27]): Active; Activity (Mus musculus [28]): Active; Activity (RAW264.7 [29]): Active; Activity (Mus musculus [30]): Active; Activity (Mus musculus [31]): Active

# Reference: ChEMBL document CHEMBL6127066, “Pegylation enhances the anti-osteoporosis activity of acacetin in both ovariectomized and LPS-stimulated mice” (Bioorg Med Chem, 2024)
